In patent publication US20240174695A1, “Spirocycle Containing Bicyclic Heteroaryl Compounds” (Protego Biopharma, Inc., priority 2022, published 2024):

The compounds below were run on Recombinant amyloidogenic full length light chain protein WIL-FL T46L (assay: Differential Scanning Fluorimetry Assay (thermal shift assay)). Details: Thermal Shift Protein Stability Kit (Biotium), 96-well plates; protein and compounds incubated at RT for 30 min before adding the dye.
Type: binding
Method: Differential Scanning Fluorimetry Assay
The stabilization effects the compounds have on the immunoglobulin light chain protein were quantitively measured using a thermal shift assay. Recombinant amyloidogenic full length light chain protein WIL-FL T46L was produced in E. coli, purified, and used in the assay. The Thermal Shift Protein Stability Kit from Biotium was used and the assay was done in 96-well plates following the manufacturer's instructions. The protein and compounds were incubated at RT for 30 min before adding the dye and subjected to the thermal shift assay. The thermal stability (Tm) of each sample was then determined using standard curve fitting methods and compared to vehicle. Data are expressed as temperature shift: [Tm]compound−[Tm]vehicle.
Results • 0-0.5° C.=* • >0.5-1° C.=** • >1-1.5° C.=*** • >1.5-2.5° C.=**** • >2.5° C.=*****
Further: test concentration or dose not given here.

Row | Structure (SMILES) | DSF temperature shift: [Tm]compound−[Tm]vehicle
1 | Cc1c(O)ncnc1N1CC2(CN(CC(O)c3nc4c(C)cc(OC[C@H](C)c5ccccc5)cn4n3)C(=O)N2)C1 (stereo partly shown) [Compound 89] | ***** (>2.5° C.=*****)
2 | Cc1cc(OCC2(c3ccccc3)CC2)cn2nc(C(O)CN3CC4(CCN(c5ncccn5)CC4)NC3=O)nc12 (stereo not shown) [Compound 56] | ***** (>2.5° C.=*****)
3 | Cc1cc(OC[C@H](C)c2ccccc2)cn2nc(CCN3CC4(CCN(c5nc(F)cc(F)n5)CC4)NC3=O)nc12 [Compound 109] | **** (>1.5-2.5° C.=****)
4 | Cc1cc(OC[C@H](C)c2ccccc2)cn2nc(C(O)CN3CC4(CCN(C(=O)Cn5nnnc5C)CC4)NC3=O)nc12 (stereo partly shown) [Compound 71] | **** (>1.5-2.5° C.=****)
5 | Cc1cc(OC[C@H](C)c2ccccc2)cn2nc(C(O)CN3CC4(CCN(C(=O)Cc5ncnn5C)CC4)NC3=O)nc12 (stereo partly shown) [Compound 70] | **** (>1.5-2.5° C.=****)
6 | Cc1ccc(N2CCC3(CC2)CN(CCc2nc4c(C)cc(OC[C@H](C)c5ccccc5)cn4n2)C(=O)N3)nn1 [Compound 121] | **** (>1.5-2.5° C.=****)
7 | Cc1cc(OC[C@H](C)c2ccccc2)cn2nc(CCN3CC4(CCN(c5ccnc(O)c5)CC4)NC3=O)nc12 [Compound 105] | ***** (>2.5° C.=*****)
8 | Cc1cc(OC[C@H](C)c2ccccc2)cn2nc(C(O)CN3CC4(CN(c5nccc(C(=O)O)n5)C4)NC3=O)nc12 (stereo partly shown) [Compound 87] | ***** (>2.5° C.=*****)
9 | Cc1cc(OCC2(c3ccccc3)CC2)cn2nc(C(O)CN3CC4(CCN(c5ccc(C(=O)O)nc5)CC4)NC3=O)nc12 (stereo not shown) [Compound 48] | **** (>1.5-2.5° C.=****)
10 | CC[C@]1(c2ccccc2)CCN(c2cc(C)c3nc(CCN4CC5(CCN(c6nccn7cnnc67)CC5)NC4=O)nn3c2)C1 [Compound 8] | ***** (>2.5° C.=*****)
11 | Cc1cc(OC[C@H](C)c2ccccc2)cn2nc(CCN3CC4(CCN(c5ncccn5)CC4)NC3=O)nc12 [Compound 115] | **** (>1.5-2.5° C.=****)
12 | Cc1cc(OCC2(c3ccccc3)CC2)cn2nc(C(O)CN3CC4(CCN(c5ccc(F)nn5)CC4)NC3=O)nc12 (stereo not shown) [Compound 43] | **** (>1.5-2.5° C.=****)
13 | CCC1(c2ccccc2)CCN(c2cc(C)c3nc(CCN4CC5(CCN(c6nccn7ccnc67)CC5)NC4=O)nn3c2)C1 (stereo not shown) [Compound 5] | ***** (>2.5° C.=*****)
14 | Cc1cc(OC[C@H](C)c2ccccc2)cn2nc(CCN3CC4(CN(c5cccc(C(=O)O)n5)C4)NC3=O)nc12 [Compound 126] | *** (>1-1.5° C.=***)
15 | Cc1cc(OC[C@H](C)c2ccccc2)cn2nc(C(O)CN3CC4(CCN(c5ccnc(O)c5)CC4)NC3=O)nc12 (stereo partly shown) [Compound 74] | **** (>1.5-2.5° C.=****)
16 | Cc1nc(N2CCC3(CC2)CN(CCc2nc4c(C)cc(OC[C@H](C)c5ccccc5)cn4n2)C(=O)N3)no1 [Compound 123] | **** (>1.5-2.5° C.=****)
17 | Cc1cc(OC[C@H](C)c2ccccc2)cn2nc(C(O)CN3CC4(CCN(c5cnccn5)CC4)NC3=O)nc12 (stereo partly shown) [Compound 78] | ***** (>2.5° C.=*****)
18 | CNC(=O)c1cc(N2CCC3(CC2)CN(CC(O)c2nc4c(C)cc(OCC5(c6ccccc6)CC5)cn4n2)C(=O)N3)ccn1 (stereo not shown) [Compound 133] | ***** (>2.5° C.=*****)
19 | Cc1cc(OC[C@H](C)c2ccccc2)cn2nc(CCN3CC4(CN(c5ncc(F)cn5)C4)NC3=O)nc12 [Compound 127] | ***** (>2.5° C.=*****)
20 | Cc1cc(OCC2(c3ccccc3)CC2)cn2nc(C(O)CN3CC4(CCN(c5cnc(Cl)cn5)CC4)NC3=O)nc12 (stereo not shown) [Compound 55] | **** (>1.5-2.5° C.=****)
21 | Cc1cc(OCC(C)c2ccccc2)cn2nc(CCN3CC4(CCN(c5nccn6ccnc56)CC4)NC3=O)nc12 (stereo not shown) [Compound 9, 8-(Imidazo[1,2-a]pyrazin-8-yl)-3-(2-(8-methyl-6-(2-phenylpropoxy)-[1,2,4]triazolo[1,5-a]pyridin-2-yl)ethyl)-1,3,8-triazaspiro[4.5]decan-2-one] | ***** (>2.5° C.=*****)
22 | COC(=O)c1cc(N2CC3(CN(CC(O)c4nc5c(C)cc(OC[C@H](C)c6ccccc6)cn5n4)C(=O)N3)C2)ccn1 (stereo partly shown) [Compound 137] | ***** (>2.5° C.=*****)
23 | Cc1cc(OC[C@H](C)c2ccccc2)cn2nc(CCN3CC4(CCN(c5ccnc(C(F)(F)F)c5)CC4)NC3=O)nc12 [Compound 96] | *** (>1-1.5° C.=***)

Row | Structure (SMILES) | DSF temperature shift: [Tm]compound−[Tm]vehicle
24 | C[C@@H](COc1cc(CO)c2nc(C(O)CN3CC4(CN(c5ccnc(O)c5)C4)OC3=O)nn2c1)c1ccccc1 (stereo partly shown) [Compound 145] | ***** (>2.5° C.=*****)
25 | COc1cc(N2CCC3(CC2)CN(CCc2nc4c(C)cc(OC[C@H](C)c5ccccc5)cn4n2)C(=O)N3)ccn1 [Compound 143] | **** (>1.5-2.5° C.=****)
26 | CCOC(=O)c1ccc(N2CCC3(CC2)CN(CC(O)c2nc4c(C)cc(OCC5(c6ccccc6)CC5)cn4n2)C(=O)N3)cn1 (stereo not shown) [Compound 130] | *** (>1-1.5° C.=***)
27 | Cc1cc(OCC2(c3ccccc3)CC2)cn2nc(C(O)CN3CC4(CCN(C(=O)c5nncn5C)CC4)NC3=O)nc12 (stereo not shown) [Compound 30, 3-(2-hydroxy-2-(8-methyl-6-((1-phenylcyclopropyl)methoxy)-[1,2,4]triazolo[1,5-a]pyridin-2-yl)ethyl)-8-(4-methyl-4H-1,2,4-triazole-3-carbonyl)-1,3,8-triazaspiro[4.5]decan-2-one] | **** (>1.5-2.5° C.=****)
28 | Cc1cc(OC[C@H](C)c2ccccc2)cn2nc(CCN3CC4(CCN(c5ncc(F)cn5)CC4)OC3=O)nc12 [Compound 114] | *** (>1-1.5° C.=***)
29 | Cc1cc(OC[C@H](C)c2ccccc2)cn2nc(C(=O)CN3CC4(CCN(c5nccn6cnnc56)CC4)CC3=O)nc12 [Compound 64] | **** (>1.5-2.5° C.=****)
30 | Cc1cc(OC[C@H](C)c2ccccc2)cn2nc(C(O)CN3CC4(CCN(c5nccn6cnnc56)CC4)OC3=O)nc12 (stereo partly shown) [Compound 77] | **** (>1.5-2.5° C.=****)
31 | COc1ncccc1N1CCC2(CC1)CN(CCc1nc3c(C)cc(OC[C@H](C)c4ccccc4)cn3n1)C(=O)N2 [Compound 139] | *** (>1-1.5° C.=***)
32 | Cc1cc(OC[C@H](C)c2ccccc2)cn2nc(C(O)CN3CC4(CN(c5ccnc(S(C)(=N)=O)c5)C4)NC3=O)nc12 (stereo partly shown) [Compound 82] | **** (>1.5-2.5° C.=****)
33 | COc1cccc(N2CCC3(CC2)CN(CC(O)c2nc4c(C)cc(OCC5(c6ccccc6)CC5)cn4n2)C(=O)N3)n1 (stereo not shown) [Compound 140] | **** (>1.5-2.5° C.=****)
34 | Cc1cc(OCC2(c3ccccc3)CC2)cn2nc(C(O)CN3CC4(CCN(c5ccncc5)CC4)NC3=O)nc12 (stereo not shown) [Compound 46] | **** (>1.5-2.5° C.=****)
35 | Cc1cc(OCC2(c3ccccc3)CC2)cn2nc(C(O)CN3CC4(CCN(c5ccn(C)n5)CC4)NC3=O)nc12 (stereo not shown) [Compound 61] | **** (>1.5-2.5° C.=****)
36 | Cc1cc(OCC2(c3ccccc3)CC2)cn2nc(C(O)CN3CC4(CCN(c5nnn(C)n5)CC4)NC3=O)nc12 (stereo not shown) [Compound 62] | **** (>1.5-2.5° C.=****)
37 | Cc1cc(OCC(C)c2ccccc2)cn2nc(CCN3CC4(CCN(c5nccn6cnnc56)CC4)NC3=O)nc12 (stereo not shown) [Compound 13] | ***** (>2.5° C.=*****)
38 | Cc1cc(OCC2(c3ccccc3)CC2)cn2nc(C(O)CN3CC4(CCN(c5ccc(N)c(F)n5)CC4)NC3=O)nc12 (stereo not shown) [Compound 52] | ***** (>2.5° C.=*****)
39 | Cc1cc(OCC2(c3ccccc3)CC2)cn2nc(C(O)CN3CC4(CCN(c5nccn6cncc56)CC4)NC3=O)nc12 (stereo not shown) [Compound 57] | ***** (>2.5° C.=*****)
40 | Cc1cc(N2CCC(C)(c3ccccc3)C2)cn2nc(CCN3CCCC4(CCN(c5nccn6cnnc56)CC4)C3=O)nc12 (stereo in doubt) [Compound 28, (R)-9-([1,2,4]triazolo[4,3-a]pyrazin-8-yl)-2-(2-(8-methyl-6-(3-methyl-3-phenylpyrrolidin-1-yl)-[1,2,4]triazolo[1,5-a]pyridin-2-yl)ethyl)-2,9-diazaspiro[5.5]undecan-1-one] | ***** (>2.5° C.=*****)
41 | Cc1cc(OC[C@H](C)c2ccccc2)cn2nc(CCN3CC4(CCN(c5cc(F)nc(F)n5)CC4)NC3=O)nc12 [Compound 110] | **** (>1.5-2.5° C.=****)
42 | Cc1cc(OC[C@H](C)c2ccccc2)cn2nc(C(O)CN3CC4(CN(c5cccc(O)n5)C4)NC3=O)nc12 (stereo partly shown) [Compound 83] | ***** (>2.5° C.=*****)
43 | Cc1cc(OC[C@H](C)c2ccccc2)cn2nc(C(O)CN3CC4(CN(c5ccnc(C(=O)O)c5)C4)NC3=O)nc12 (stereo partly shown) [Compound 80] | ***** (>2.5° C.=*****)
44 | Cc1cc(OC[C@H](C)c2ccccc2)cn2nc(CCN3CC4(CCN(c5cc(Cl)nc(S(C)(=O)=O)n5)CC4)NC3=O)nc12 [Compound 99] | **** (>1.5-2.5° C.=****)
45 | Cc1ncnc(N2CCC3(CC2)CN(CCc2nc4c(C)cc(OC[C@H](C)c5ccccc5)cn4n2)C(=O)N3)c1C [Compound 118] | **** (>1.5-2.5° C.=****)
46 | Cc1cc(OC[C@H](C)c2ccccc2)cn2nc(C(O)CN3CC4(CCN(c5ccnc(O)c5)C4)NC3=O)nc12 (stereo partly shown) [Compound 73] | *** (>1-1.5° C.=***)
